Measurements taken from paper PMC12040169 (PLOS Biology, 2025).

Assay: in vitro
Conditions: human, hela cells, % viability

Row | Compound | viability at 28.5 h, 10 µM [%] | viability at 28.5 h, 10 µM (bulk resorufin, single well) [%]
1 | CC[C@H]1C[N@@]2CC[C@H]1C[C@@H]2CNS(=O)(=O)c1cccc(C#N)c1 [CBK288746] | 96.9 | 
2 | O=C1CC(C(=O)N2CCN(C(=O)c3ccco3)CC2)c2ccccc21 (stereo not shown) [CBK144464] | 105 | 
3 | Cc1ccc(-c2cc(CC3(C(=O)N(C)C)CCCN(C)C3)on2)cc1 (stereo not shown) [CBK281695] | 89.3 | 
4 | COC[C@H]1CCCN1C(=O)CC[C@H]1CNC(=O)[C@@H]2[C@@H](CCN2C2CCOCC2)N1C [CBK289037] | 90.9 | 
5 | CN(C)c1cccc(-c2nc(-c3cccs3)cnc2N)c1 [CBK063979] | 93.5 | 
6 | O=C1NCC2(C/C=C/CCOc3ccccc31)CCNCC2 [CBK292178] | 104 | 
7 | COCCSCc1cn2cc(Br)ccc2n1 [CBK306361] | 96.5 | 
8 | CC1=NN(c2ccc([N+](=O)[O-])cc2)C(=O)/C1=C/NCCN1CCN(C(=O)c2ccc(F)cc2)CC1 [CBK262920] | 95.1 | 
9 | CN1CCN(CCC(=O)N2CCN(C(=O)c3ccco3)CC2)CC1 [CBK144481] | 89.3 | 
10 | OCCC1CCCCN1c1cncc(-c2cccs2)n1 (stereo not shown) [CBK065758] | 104 | 
11 | Cc1ccc(C(=O)N/C(=C\c2cccc([N+](=O)[O-])c2)c2n[nH]c(=S)[nH]2)cc1 [CBK263114] | 87 | 
12 | O=C1NC2(CCCN(C(=O)c3ccco3)C2)Nc2ccccc21 (stereo not shown) [CBK284803] | 104 | 
13 | O=C(O)C(Cc1ccccc1)N1C(=O)c2cccc([N+](=O)[O-])c2C1=O (stereo not shown) [CBK115372] | 95.8 | 
14 | O=C(Nc1ncc(Cc2ccc(F)cc2)s1)c1ccc(-c2ccc(F)cc2)o1 [CBK300522] | 99.5 | 
15 | Cc1nn(C)c(C)c1CN(C)C(=O)c1cc(-c2ccc(F)cc2)on1 [CBK281587] | 82.2 | 
16 | COc1cc(C=C2C(=O)NC(=S)NC2=O)ccc1OCc1c(C)no[n+]1[O-] [CBK263467] |  | 95.8
17 | CC(=O)c1cccc(-c2nc(CC3CCN(C)CC3)nn2CCO)c1 [CBK306645] | 98.3 | 

Row | Compound | viability at 28.5 h, 10 µM [%] | viability at 28.5 h, 10 µM (bulk resorufin, single well) [%]
18 | C=CCc1cc(/C=C2\C(=O)NC(=O)N(c3ccc4c(c3)OCO4)C2=O)cc(OC)c1OCC(=O)O [CBK264025] |  | 98.5
19 | O=c1[nH]c2ncc(-c3ccsc3)nc2n1CCCO [CBK065044] | 94.9 | 
20 | CC1(C)C[C@H](NC(=O)C2CC2)[C@@]2(CCC(=O)N3CCCC3)CC[C@](C)(O)C[C@@H]12 [CBK289044] | 88.1 | 
21 | O=C(COc1ccccc1)Nc1nn(Cc2ccc(S(=O)(=O)N3CCCC3)cc2)c2ccccc12 [CBK061594] | 58.6 | 
22 | COc1ccc([C@@H](O)[C@H]2CCCNC2)cc1 [CBK282298] | 86.3 | 
23 | Cc1ccc(OCc2occc2C(=O)NCCn2ccnc2C)cc1 [CBK306725] | 93.7 | 
24 | O=C(CSc1nc[nH]n1)Nc1nsc(-c2ccc(Cl)cc2)n1 [CBK267273] | 110 | 
25 | O=C(CN1CCCC1c1cccs1)Nc1cccc(C(=O)NC2CC2)c1 (stereo not shown) [CBK305895] | 98.5 | 
26 | Cc1nn(C)cc1CN(Cc1ccccc1F)CC1CCCO1 (stereo not shown) [CBK283014] | 106 | 
27 | CCCc1n[nH]c(=S)n1CC(=O)Nc1cc(NC(=O)C2CC2)ccc1C [CBK297740] | 106 | 
28 | Cc1ccc(Oc2ccc([N+](=O)[O-])cc2F)c(Br)c1 [CBK002821] | 90.3 | 
29 | COc1c(Cl)cc(Cl)cc1C(=O)NC(=S)Nc1sc2c(c1C#N)CCCC2 [CBK268741] | 84.4 | 
30 | CN(C)CC(=O)N1CCc2nc(-c3cccc(F)c3)sc2C1 [CBK281801] | 106 | 
31 | CCN1CCC2(CC1)NC(=O)Cc1cc(OC)c(OC)c(OC)c12 [CBK039868] | 97.6 | 
32 | Cc1cn([C@@H]2O[C@H](CO)[C@H](O)C2O)c(=O)[nH]c1=O (stereo partly shown) [CBK201265] | 101 | 
33 | O=C(c1ccccc1)N1CCN(c2ccc(-n3cccn3)nn2)CC1 [CBK287662] | 92.2 | 
34 | O=C1NC(=O)c2cc(S(=O)(=O)NCCCO)cc3cccc1c23 [CBK267602] | 110 | 
